The values that follow are results of earlier work, collected in patent US20080305994A1, “Pharmaceutical Compositions and Method for Treating, Reducing, Ameliorating, Alleviating, or Preventing Dry Eye” (priority 2007, published 2008).

Data set [1] concerns intercellular adhesion molecule 1 ("ICAM-1"). The note with it: rabbits; inhibition of PARP.
Data set [2] has as its system lipopolysaccharide ("LPS")-induced leukocyte recruitment within pulmonary arterioles, capillaries, and venules. The note with it: rabbits, inhibition of PARP.

For the molecule `NC(=O)c1cccc(N)c1` [3-aminobenzamide], the “expression of intercellular adhesion molecule 1 (ICAM-1)” value in data set [1] is listed as “suppressed”. Further, the “LPS-induced leukocyte recruitment within pulmonary arterioles, capillaries, and venules” value in data set [2] was “reduced”.
